In paper PMC6277545, “Structural Basis for the Limited Response to Oxidative and Thiol-Conjugating Agents by Triosephosphate Isomerase From the Photosynthetic Bacteria Synechocystis” (Frontiers in Molecular Biosciences, 2018):

Tests used:
Type in all cases: biochemical
AtcTPI = molecular target: T1, AtcTPI (Arabidopsis thaliana, UniProt P48491); test: residual activity after […] h incubation with reagent, coupled assay; details: read-out: concentration giving 50% of original activity
T1 construct: gene CTIMC; cytosolic isoform, purified dimer; expression not described here

SyTPI [1] = molecular target: T2, SyTPI (Synechocystis sp. PCC 6803, UniProt Q59994); test: as above; details: read-out: % activity at 0.5 mM
T2 construct: gene tpiA; full length, codon-optimised, E. coli BL21(DE3) delta-tpi; His tag cut by PreScission, extra Gly-Pro-His before Met1; homodimer 54 kDa

AtpdTPI = molecular target: T3, AtpdTPI (Arabidopsis thaliana, UniProt Q9SKP6); test: as above; details: read-out: concentration giving 50% of original activity
T3 construct: gene TIM; expression not described here

HsTPI [2] = molecular target: T4, HsTPI (Homo sapiens, UniProt P60174); test: residual activity after […] min incubation, coupled assay
T4 construct: gene TPI1; source and expression not described; dimer

SyTPI [3] = molecular target: T2, SyTPI; test: as above
HsTPI [4] = molecular target: T5, HsTPI (Homo sapiens, UniProt P60174, L109T/S106T/V102Y); test: activity with / without ornidazole after […] h
T5 construct: gene TPI1; source and expression not described; dimer
T5 sequence (P60174 2-249 V102Y/S106T/L109T): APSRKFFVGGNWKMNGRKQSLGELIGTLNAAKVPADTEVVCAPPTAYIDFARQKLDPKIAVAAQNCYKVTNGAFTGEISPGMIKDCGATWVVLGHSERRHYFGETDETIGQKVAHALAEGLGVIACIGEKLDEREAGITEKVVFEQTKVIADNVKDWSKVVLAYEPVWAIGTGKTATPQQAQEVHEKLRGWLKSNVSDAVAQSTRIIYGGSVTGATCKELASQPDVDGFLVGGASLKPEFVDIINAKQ

T2 sequence (Q59994 whole entry): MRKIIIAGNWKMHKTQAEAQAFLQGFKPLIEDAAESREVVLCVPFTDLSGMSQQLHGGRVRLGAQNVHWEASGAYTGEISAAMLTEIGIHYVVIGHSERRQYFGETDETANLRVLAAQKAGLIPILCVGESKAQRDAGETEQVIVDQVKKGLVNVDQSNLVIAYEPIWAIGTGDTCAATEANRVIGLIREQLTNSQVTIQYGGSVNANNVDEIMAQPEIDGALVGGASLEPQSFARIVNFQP
T3 sequence (Q9SKP6 60-315 limits assumed): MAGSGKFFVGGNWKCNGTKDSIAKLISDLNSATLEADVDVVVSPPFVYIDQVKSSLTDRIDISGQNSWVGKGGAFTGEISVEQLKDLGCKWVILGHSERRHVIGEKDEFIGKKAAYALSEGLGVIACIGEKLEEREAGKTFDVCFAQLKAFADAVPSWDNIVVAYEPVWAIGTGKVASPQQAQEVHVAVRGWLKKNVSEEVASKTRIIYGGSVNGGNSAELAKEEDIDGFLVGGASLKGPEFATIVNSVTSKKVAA
T4 sequence (P60174 2-249): as the sequence (P60174 2-249 V102Y/S106T/L109T) above, with Y101V, T105S, T108L counted along it
T1 sequence (P48491 whole entry, canonical isoform): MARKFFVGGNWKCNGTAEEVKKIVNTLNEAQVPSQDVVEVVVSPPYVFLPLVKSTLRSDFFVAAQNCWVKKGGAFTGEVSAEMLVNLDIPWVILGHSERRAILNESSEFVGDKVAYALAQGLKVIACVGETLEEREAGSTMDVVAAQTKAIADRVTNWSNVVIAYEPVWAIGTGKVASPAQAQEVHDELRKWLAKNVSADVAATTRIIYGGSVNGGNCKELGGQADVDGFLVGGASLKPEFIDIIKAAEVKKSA

| IC50 (AtcTPI) [µM] | activity at 500 µM (SyTPI [1]) [%] | IC50 (AtpdTPI) [µM] | activity at 50 µM (HsTPI [2]) [%] | inhibition at 50 µM (SyTPI [3]) [%] | activity at 50 µM (HsTPI [4]) [%] | SMILES |
| --- | --- | --- | --- | --- | --- | --- |
| 0.005 | 50 | 18 | – | – | – | CSS(C)(=O)=O [S-methyl methanethiosulfonate] |
| – | – | – | 90 | ~80 | ~60 | Cc1ncc([N+](=O)[O-])n1CC(O)CCl (stereo not drawn) [ornidazole] |
